For this test, the system named is CEM cells HIV-1 protection, formazan growth assay. Nature of the test: NCI AIDS Antiviral Assay. The conditions noted are these: for pIC50: measured here: growth of uninfected CEM cells. In short, it runs like this: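 Screen of anti-HIV-1 activity in human CEM cells using a formazan-based growth measurement at five drug concentrations. Hits with 50% or greater protection were repeated, and confirmation required reproducible complete protection.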

Each structure is given as a SMILES string. pEC50, pIC50: −log10 of the molar value. Active and inactive are the calls of the source.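 How the source made its calls: active means compounds giving half or more protection of infected cells from virus-caused growth loss, again on retest; inactive means the rest.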

As usually defined, the pEC50 is the EC50 on a negative log10 scale, so that one unit is a factor of ten. In general, pIC50 refers to the IC50 on a negative log10 scale, so that one unit is a factor of ten.

For the compound `c1ccc(C2OC23CCCCC3)cc1` (centres undefined), the pEC50 was less than 3.70 and the negative-log IC50 (pIC50) was less than 3.70.
Consider `COc1ccc2[nH]c3c(C)c4ccnc(NCCCN(C)CCCNC(=O)NCCCN(C)CCCNc5nccc6c(C)c7[nH]c8ccc(OC)cc8c7c(C)c56)c4c(C)c3c2c1`, for which the pEC50 is less than 5.30 and the negative-log IC50 (pIC50) was 6.05.
Turning to `Cc1nc(N(CCO)CCO)nc2c1C(=O)Nc1ccccc1N2`, the pEC50 was less than 3.70 and the pIC50 is 4.37.
Take `CCc1c(O)c2c(c(O)c1C(C)=O)C(=O)c1c(cc(O)c(C(=O)O)c1C(=O)O)C2=O`: the pEC50 is less than 4.48 and the negative logarithm of the IC50 (pIC50) is less than 4.48.
`CCN(CC)CSc1nc2ccccc2o1`: the outcome was inactive.
With `CC(C)(Oc1ccc(C(=O)c2ccc(Cl)cc2)cc1Cl)C(=O)N1CCN(CCO)CC1`, the pEC50 was less than 3.70 and the negative-log IC50 (pIC50) was 5.35.
The like results for `CC(C)OC1OC(CO)C(O)CC1n1cc(F)c(=O)[nH]c1=O` (centres undefined) were, in that order, less than 3.70 and 4.61.
As for `COc1cc([N+](=O)[O-])c(S(=O)(=O)O)cc1-n1nc(-c2ccccc2)n[n+]1-c1cc(S(=O)(=O)[O-])c([N+](=O)[O-])cc1OC`, the pEC50 was less than 4.00 and the pIC50 was less than 4.00.
Regarding `c1ccc(C2=Nc3ccccc3C(c3ccccc3)=Nc3ccccc32)cc1`, the pEC50 was less than 4.14 and the negative logarithm of the IC50 (pIC50) was less than 4.14.
As for `C=CCO/N=C/c1cc(NC(=S)c2ccoc2C)ccc1Cl`, the pEC50 is 7.73 and the negative-log IC50 (pIC50) was 4.81.
On to `COC(=O)C(=O)C(C(C)=O)C(=O)NCc1ccc(OC)c(OC)c1` (centres undefined), for which the pEC50 was 4.21 and the pIC50 is 3.13.
Turning to `c1n[nH]cc1C12C3C4C5C3C1C5C42` (centres undefined), the pEC50 is less than 3.70 and the negative-log IC50 (pIC50) is 3.92.
The like results for `CCOc1ccc(NC2=CC(=O)C(=O)c3ccccc32)cc1` were, in that order, less than 5.02 and less than 5.02.
For `Cc1ccc([N+](=O)[O-])c2c(NCCC[N+](C)(C)[O-])c3ccccc3nc12`, in that order: less than 5.70 and 6.50.
As to `CN1CN(c2ccccc2)C2(CCN(CCCC(=O)c3cccs3)CC2)C1=O`, the pEC50 is less than 3.70 and the pIC50 is 4.41.
For `O=C1CSC(c2ccc([N+](=O)[O-])cc2)N1c1ccc(-c2ccc(-n3c(-c4ccccc4)nc4ccccc4c3=O)cc2)cc1` (centres undefined), in that order: less than 3.70 and 4.40.
For `CCCCCCCCCCOCCC(=O)O`, in that order: less than 3.70 and 4.05.
As for `O=S(=O)(Oc1ccc2ccccc2c1-c1c(OS(=O)(=O)C(F)(F)F)ccc2ccccc12)C(F)(F)F`, the outcome was inactive.
Consider `COc1ccccc1NC(=O)C1=C(C)NC(C)=C(C(=O)Nc2ccccc2OC)C1c1ccc(C)cc1`, for which the pEC50 is less than 5.12 and the negative-log IC50 (pIC50) was less than 5.12.
`O=C(O)c1ccc(CI)cc1`: the pEC50 was less than 3.70 and the pIC50 was 4.61.
With `O=C(CCC[n+]1ccccc1)Sc1ccccc1C(=O)NCc1ccc2c(c1)OCO2`, the pEC50 was less than 4.78 and the pIC50 was 5.47.
Take `N#CSC1CCCCCCC1SC#N` (centres undefined): the pEC50 is less than 3.70 and the negative logarithm of the IC50 (pIC50) is 4.98.
For `O=C1OC(C(O)CO)C(C(O)CO)OC1=O` (centres undefined), in that order: less than 3.70 and less than 3.70.
For `S=c1[nH]nc2nc(Nc3ccccc3)nc(Nc3ccccc3)n12`, in that order: less than 4.67 and less than 4.67.
`O=C1C2=C(Nc3cc([N+](=O)[O-])ccc3N2)OC1c1ccccc1` (centres undefined): the pEC50 was less than 4.77 and the pIC50 is less than 4.77.
As for `COc1cc2c(cc1OCCCN1C(=O)c3cccc4cccc(c34)C1=O)N=C[C@@H]1CCCN1C2=O`, the pEC50 was 5.29 and the negative-log IC50 (pIC50) was 4.88.
The like results for `Cc1cc(C)c(C#N)c(SSC(Cl)(Cl)Cl)n1` were, in that order, less than 3.70 and 4.49.
As to `COc1ccc(C(=O)N2CCN(c3ccc4c(c3)OCC(=O)N4)CC2)cc1OC`, the pEC50 is less than 3.70 and the pIC50 is less than 3.70.
